How the values were obtained:
rat DNPH1 [1] = biological target: T1, rat DNPH1 (Rattus norvegicus, UniProt O35820); assay: Kinetic measurements: inhibition of rat DNPH1 activity (dGMP substrate, spectrophotometric)
T1 sequence (O35820 1-163): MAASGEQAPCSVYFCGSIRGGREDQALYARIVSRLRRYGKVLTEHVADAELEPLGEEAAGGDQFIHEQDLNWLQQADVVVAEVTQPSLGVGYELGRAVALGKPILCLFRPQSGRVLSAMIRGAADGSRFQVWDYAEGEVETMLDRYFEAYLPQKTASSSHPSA

human DNPH1 [2] = biological target: T2, human DNPH1 (Homo sapiens, UniProt O43598); assay: Kinetic measurements: inhibition of human DNPH1 activity (dGMP substrate, guanine by RR-HPLC)
T2 sequence (O43598 1-174): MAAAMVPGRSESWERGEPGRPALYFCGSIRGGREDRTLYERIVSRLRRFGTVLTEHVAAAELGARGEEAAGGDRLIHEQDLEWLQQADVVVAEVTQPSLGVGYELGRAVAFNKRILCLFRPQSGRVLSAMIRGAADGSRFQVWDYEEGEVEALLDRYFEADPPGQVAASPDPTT

human DNPH1 [3] = biological target: T2, human DNPH1; assay: Kinetic parameters of human DNPH1 with 2'-deoxynucleoside 5'-monophosphates as substrates; format: biochemical; set-up: made in house; host or cells: E. coli Bli5; conditions: substrate of human DNPH1; for Km: double reciprocal plots, five concentrations
rat DNPH1 [4] = biological target: T1, rat DNPH1; assay: Isothermal titration calorimetry with rat DNPH1; conditions: for -T∆S / ∆G / ∆H / ∆S: ITC, T = 298 K, pH 6.0, rat DNPH1
human DNPH1 [5] = biological target: T2, human DNPH1; assay: Isothermal titration calorimetry with human DNPH1; conditions: for -T∆S / ∆G / ∆H / ∆S: ITC, T = 298 K, pH 6.0, human DNPH1
rat DNPH1 [6] = biological target: T1, rat DNPH1; set-up: made in house; host or cells: E. coli Bli5; method as in PMID 20962348; conditions: cited from earlier work

SMILES: C/C(=C\CNc1ncnc2c1ncn2[C@@H]1O[C@H](COP(=O)(O)O)[C@@H](O)[C@H]1O)CO [Compound 2, trans-zeatin riboside 5’-monophosphate]
- Ki (rat DNPH1 [1]): 15500 ± 1000 nM
- decrease in activity compared to 1 (rat DNPH1 [1]; hydroxyl group on the C4 chain): up to 5 fold
- Ki (human DNPH1 [2]): 8000 ± 1400 nM

SMILES: O=c1[nH]cnc2c1ncn2[C@H]1C[C@H](O)[C@@H](COP(=O)(O)O)O1 [dIMP]
- kcat (human DNPH1 [3]): 1.6 ± 0.1 10^-3 s^-1
- Km (human DNPH1 [3]): 104 ± 19 µM

SMILES: O=C(O)CCCNc1ncnc2c1ncn2[C@@H]1O[C@H](COP(=O)(O)O)[C@@H](O)[C@H]1O [Compound 14, N ^6-(3-carboxypropyl)adenosine 5'-monophosphate]
- Kd (rat DNPH1 [4]): 9400 ± 100 nM
- -T∆S (rat DNPH1 [4]): 5.5 kcal/mol
- ∆G (rat DNPH1 [4]): -6.9 kcal/mol
- ∆H (rat DNPH1 [4]): -12.4 ± 0.1 kcal/mol
- ∆S (rat DNPH1 [4]): -18.5 cal.K^1.mol^-1
- Kd (human DNPH1 [5]): 5500 ± 100 nM
- -T∆S (human DNPH1 [5]): 2.6 kcal/mol
- ∆G (human DNPH1 [5]): -7.2 kcal/mol
- ∆H (human DNPH1 [5]): -9.8 ± 0.1 kcal/mol
- ∆S (human DNPH1 [5]): -8.8 cal.K^-1.mol^-1
- Ki (rat DNPH1 [1]): 11200 nM
- Ki (human DNPH1 [2]): 2100 ± 200 nM

SMILES: Nc1ccn([C@H]2C[C@H](O)[C@@H](COP(=O)(O)O)O2)c(=O)n1 [dCMP]
- kcat (human DNPH1 [3]): 8.3 ± 0.4 10^-3 s^-1
- Km (human DNPH1 [3]): 2500 ± 207 µM

SMILES: Nc1nc2c(ncn2[C@H]2C[C@H](O)[C@@H](COP(=O)(O)O)O2)c(=O)[nH]1 [dGMP, 2’-Deoxyguanosine 5’-monophosphate]
- kcat (human DNPH1 [3]): 0.002 s⁻¹

SMILES: O=P(O)(O)OC[C@H]1O[C@@H](n2cnc3c(NC4CCCCC4)ncnc32)[C@H](O)[C@@H]1O [Compound 8, N ^6-Cyclohexyladenosine 5'-monophosphate]
- Kd (rat DNPH1 [4]): 500 ± 100 nM
- -T∆S (rat DNPH1 [4]): 11.2 kcal/mol
- ∆G (rat DNPH1 [4]): -8.7 kcal/mol
- ∆H (rat DNPH1 [4]): -19.9 ± 0.1 kcal/mol
- ∆S (rat DNPH1 [4]): -37.6 cal.K^1.mol^-1
- Ki (rat DNPH1 [1]): 1200 ± 100 nM
- Ki (human DNPH1 [2]): 1600 ± 300 nM

SMILES: C/C(=C/CNc1ncnc2c1ncn2[C@@H]1O[C@H](COP(=O)(O)O)[C@@H](O)[C@H]1O)CO [Compound 3, cis-zeatin riboside 5’-monophosphate]
- Ki (rat DNPH1 [1]): 6100 ± 1200 nM
- Ki (human DNPH1 [2]): 5600 ± 800 nM

SMILES: CC(C)=CCNc1ncnc2c1ncn2[C@@H]1O[C@H](COP(=O)(O)O)[C@@H](O)[C@H]1O [Compound 1, N ^6-Isopentenyl adenosine 5’-monophosphate]
- Kd (rat DNPH1 [4]): 2600 ± 100 nM
- -T∆S (rat DNPH1 [4]): 8.3 kcal/mol
- ∆G (rat DNPH1 [4]): -7.6 kcal/mol
- ∆H (rat DNPH1 [4]): -15.9 ± 0.1 kcal/mol
- ∆S (rat DNPH1 [4]): -27.9 cal.K^1.mol^-1
- Kd (human DNPH1 [5]): 2100 ± 200 nM
- -T∆S (human DNPH1 [5]): 2.4 kcal/mol
- ∆G (human DNPH1 [5]): -7.8 kcal/mol
- ∆H (human DNPH1 [5]): -10.2 ± 0.1 kcal/mol
- ∆S (human DNPH1 [5]): -8.2 cal.K^-1.mol^-1
- Ki (rat DNPH1 [1]): 3300 nM
- Ki (human DNPH1 [2]): 2000 nM

SMILES: Nc1nc2c(ncn2[C@@H]2O[C@H](COP(=O)(O)O)[C@@H](O)[C@H]2O)c(=O)[nH]1 [GMP]
- free energy (rat DNPH1 [6]): -6.8 kcal/mol

SMILES: Nc1ncnc2c1ncn2[C@H]1C[C@H](O)[C@@H](COP(=O)(O)O)O1 [dAMP]
- kcat (human DNPH1 [3]): 2.5 ± 0.8 10^-3 s^-1
- Km (human DNPH1 [3]): 97 ± 14 µM

SMILES: O=C(O)CCNc1ncnc2c1ncn2[C@@H]1O[C@H](COP(=O)(O)O)[C@@H](O)[C@H]1O [Compound 13, N ^6-(2-carboxyethyl)adenosine 5'-monophosphate]
- Ki (rat DNPH1 [1]): 6200 ± 700 nM
- Ki (human DNPH1 [2]): 5600 ± 500 nM

SMILES: O=P(O)(O)OC[C@H]1O[C@@H](n2cnc3c(NC4CCC4)ncnc32)[C@H](O)[C@@H]1O [Compound 9, N ^6-Cyclobutyladenosine 5'-monophosphate]
- Ki (rat DNPH1 [1]): 1300 ± 100 nM
- Ki (human DNPH1 [2]): 1500 ± 100 nM

SMILES: O=P(O)(O)OC[C@H]1O[C@@H](n2cnc3c(NCc4ccco4)ncnc32)[C@H](O)[C@@H]1O [Compound 5, kinetin riboside 5’-monophosphate]
- Kd (rat DNPH1 [4]): 800 ± 100 nM
- -T∆S (rat DNPH1 [4]): 17.4 kcal/mol
- ∆G (rat DNPH1 [4]): -8.3 kcal/mol
- ∆H (rat DNPH1 [4]): -25.7 ± 0.1 kcal/mol
- ∆S (rat DNPH1 [4]): -58.3 cal.K^1.mol^-1
- Kd (human DNPH1 [5]): 1400 ± 100 nM
- -T∆S (human DNPH1 [5]): 12.6 kcal/mol
- ∆G (human DNPH1 [5]): -7.5 kcal/mol
- ∆H (human DNPH1 [5]): -20.1 ± 0.1 kcal/mol
- ∆S (human DNPH1 [5]): -42.4 cal.K^-1.mol^-1
- Ki (rat DNPH1 [1]): 1800 ± 700 nM
- Ki (human DNPH1 [2]): 2200 ± 200 nM

SMILES: O=c1ccn([C@H]2C[C@H](O)[C@@H](COP(=O)(O)O)O2)c(=O)[nH]1 [dUMP]
- kcat (human DNPH1 [3]): 200 ± 20 10^-3 s^-1
- Km (human DNPH1 [3]): 7800 ± 1760 µM

SMILES: O=P(O)(O)OC[C@H]1O[C@@H](n2cnc3c(NC4CC4)ncnc32)[C@H](O)[C@@H]1O [Compound 10, N ^6-Cyclopropyladenosine 5'-monophosphate]
- Ki (rat DNPH1 [1]): 2000 ± 600 nM
- Ki (human DNPH1 [2]): 2800 ± 600 nM

SMILES: O=P(O)(O)OC[C@H]1O[C@@H](n2cnc3c(NCCc4ccccc4)ncnc32)[C@H](O)[C@@H]1O [Compound 12, N ^6-Phenylethyladenosine 5'-monophosphate]
- Ki (rat DNPH1 [1]): 2900 ± 300 nM
- Ki (human DNPH1 [2]): 7800 ± 1000 nM

SMILES: CC(CO)CCNc1ncnc2c1ncn2[C@@H]1O[C@H](COP(=O)(O)O)[C@@H](O)[C@H]1O (stereo partly shown) [Compound 4, dihydrozeatin riboside 5’-monophosphate]
- Ki (rat DNPH1 [1]): 7600 ± 1500 nM
- Ki (human DNPH1 [2]): 3900 ± 1000 nM

SMILES: O=P(O)(O)OC[C@H]1O[C@@H](n2cnc3c(NC4CCCC4)ncnc32)[C@H](O)[C@@H]1O [Compound 7, N ^6-cyclopentyladenosine 5’-monophosphate]
- Kd (rat DNPH1 [4]): 600 ± 100 nM
- -T∆S (rat DNPH1 [4]): 2.3 kcal/mol
- ∆G (rat DNPH1 [4]): -8.5 kcal/mol
- ∆H (rat DNPH1 [4]): -10.7 ± 0.1 kcal/mol
- ∆S (rat DNPH1 [4]): -7.5 cal.K^1.mol^-1
- Kd (human DNPH1 [5]): 1400 ± 400 nM
- -T∆S (human DNPH1 [5]): -1.8 kcal/mol
- ∆G (human DNPH1 [5]): -8.0 kcal/mol
- ∆H (human DNPH1 [5]): -6.1 ± 0.1 kcal/mol
- ∆S (human DNPH1 [5]): 6.2 cal.K^-1.mol^-1
- Ki (rat DNPH1 [1]): 1200 ± 100 nM
- Ki (human DNPH1 [2]): 2600 ± 300 nM

SMILES: Cc1cn([C@H]2C[C@H](O)[C@@H](COP(=O)(O)O)O2)c(=O)[nH]c1=O [dTMP]
- kcat (human DNPH1 [3]): 25 ± 2 10^-3 s^-1
- Km (human DNPH1 [3]): 23000 ± 3050 µM

From article PMC3834327, “N ^6-Substituted AMPs Inhibit Mammalian Deoxynucleotide N-Hydrolase DNPH1” (PLoS ONE, 2013)
